Source: patent publication US6156700A, “3-(1,2-Benzisothiazol- and isoxazol-5-yl)-2,4(1H,3H)-pyrimidinedione or thione and 3-(1,2-benzisothiazol- and isoxazol-5-yl)-4(3H)-pyrimidinone or thione herbicidal agents” (American Cyanmid Company, priority 1998, dated 2000)

How the values were obtained:
[1] = test system: Foxtail, Green, Setaria viridis; assay: Postemergence herbicidal evaluation, SETVI; type: in vivo, (L.) Beau
How it was run: (§1)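 Plants were raised for roughly two weeks, then treated by spraying at 40 psi with test compound dispersed in 50/50 acetone/water with 0.5% TWEEN 20, giving about 0.0157 to 0.500 kg/ha. After four to five weeks in the greenhouse they were scored 0–9 against a control.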

[2] = test system: Wheat, Winter, cv Riband, Triticum aestivum; assay: Preemergence herbicidal evaluation, TRZAWR; type: in vivo; conditions: 0.2500 kg/ha
How it was run: (§2)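 Seeds sown in potting soil in cups, then sprayed preemergence with compound in aqueous acetone at about 0.0156 to 0.500 kg per hectare. Greenhouse-grown; rated visually 4–5 weeks after treatment on a 0–9 scale (stand, vigor, malformation, size, chlorosis, appearance) versus untreated control.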

[3] = test system: Lambsquarters, Common, Chenopodium album; assay: Postemergence herbicidal evaluation, CHEAL; type: in vivo, L.
How it was run: as §1

Galium, Galium aparine = assay: Preemergence herbicidal evaluation, GALAP; type: in vivo; conditions: 0.2500 kg/ha
How it was run: as §2

[4] = test system: Morningglory Spp., Ipomoea Spp.; assay: Preemergence herbicidal evaluation, IPOSS; type: in vivo; conditions: 0.2500 kg/ha
Excerpt: (§3) Results of herbicide evaluation are expressed on a rating scale (0-9). The scale is based upon a visual observation of plant stand, vigor, malformation, size, chlorosis and overall plant appearance as compared with a control.
(§4) The preemergence herbicidal activity of the test compounds of the present invention is exemplified by the following tests in which the seeds of a variety of monocotyledonous and dicotyledonous plants are separately mixed with potting soil and planted on top of approximately one inch of soil in separate pint cups. After planting, the cups are sprayed with the selected aqueous acetone solution containing test compound in sufficient quantity to provide the equivalent of about 0.0156 to 0.500 kg per hectare of test compound per cup. The treated cups are then placed on greenhouse benches, watered and cared for in accordance with conventional greenhouse procedures. From four to five weeks after treatment, the tests are terminated and each cup is examined and rated according to the rating system provided in Example 185.
(§5) The compounds evaluated are reported by compound number given in Example 185.

CYPSE Flatsedge [5] = assay: Preemergence weed control, flooded paddy (Table III); type: in vivo, Cyperus serotinus; design: scale not given here
Procedure: (§6) Preemergence herbicidal activity under flooded paddy conditions is determined as follows: plant seeds or propagating organs are planted in the top 0.5 cm of silt loam soil in 32 oz. plastic containers with a diameter of 10.5 cm and no drainage holes. Water is added to these containers and maintained at 1.5 to 3 cm above the soil surface for the duration of the experiment. The test compounds are applied as aqueous/acetone mixtures 50/50 v/v pipetted directly into the flood water to give the equivalent of about 0.0313 to 0.500 kg/ha of active ingredient. The treated containers are placed on greenhouse benches and cared for in accordance with conventional greenhouse procedures. Three to four weeks after treatment, the test is terminated and each container is examined and herbicidal effect rated according to the rating system provided in Example 185. The compounds evaluated are reported by compound number given in Example 185.

CYPIR Rice Flatsedge = assay: Postemergence weed control, flooded paddy (Table IV); type: in vivo, Cyperus iria; design: scale not given here
How it was run: (§7)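 Rating scale scores taken 3–4 weeks post-treatment; compounds dosed in flood water (~0.0313–0.500 kg/ha) onto weeds 3–5 cm tall and 1.5–2.5 leaf rice under 1.5–3 cm standing water.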

[6] = test system: Sicklepod, Cassia obtusifolia; assay: Preemergence herbicidal evaluation, CASOB; type: in vivo, L.; conditions: 0.2500 kg/ha
How it was run: as §2

[7] = test system: SAGPY Arrowhead (Pygmaea); assay: Preemergence weed control, flooded paddy (Table III); type: in vivo, Sagittaria pygmaea; design: scale not given here
Procedure: as §6

ORYSAT Rice, Tebonnet = assay: Rice tolerance, flooded paddy (Table IV); type: in vivo, Oryza sativa; design: scale not given here; conditions: crop tolerance
How it was run: as §7

[8] = test system: Morningglory, Ivyleaf, Ipomoea hederacea; assay: Preemergence herbicidal evaluation, IPOHE; type: in vivo, (L.) Jacq.; conditions: 0.2500 kg/ha
Excerpt: as §3, §4, §5

[9] = test system: Rice, Tebonnet, Oryza sativa; assay: Postemergence herbicidal evaluation, ORYSAT; type: in vivo, (L.) Tebonnet
How it was run: as §1

[10] = test system: Soybean, Williams, Glycine max; assay: Postemergence herbicidal evaluation, GLXMAW; type: in vivo, (L.) Merr. cv Williams
How it was run: as §1

CYPSE Flatsedge [11] = assay: Postemergence weed control, flooded paddy (Table IV); type: in vivo, Cyperus serotinus; design: scale not given here
How it was run: as §7

Soybean, Glycine max = assay: Postemergence herbicidal evaluation, GLXMA; type: in vivo, (L.) Merr.; conditions: 0.2500 kg/ha
Procedure: In the tests, seedling plants are grown in jiffy flats for about two weeks. The test compounds are dispersed in 50/50 acetone/water mixtures containing 0.5% TWEEN®20, a polyoxyethylene sorbitan monolaurate surfactant of Atlas Chemical Industries, in sufficient quantities to provide the equivalent of about 0.0157 kg to 0.500 kg per hectare of active compound when applied to the plants through a spray nozzle operating at 40 psi for a predetermined time. After spraying, the plants are placed on greenhouse benches and are cared for in accordance with conventional greenhouse procedures. From four to five weeks after treatment, the seedling plants are examined and rated according to the rating system set forth below. Where more than one test is involved for a given compound, the data are averaged.
as §3

[12] = test system: SAGPY Arrowhead (Pygmaea); assay: Postemergence weed control, flooded paddy (Table IV); type: in vivo, Sagittaria pygmaea; design: scale not given here
How it was run: as §7

Corn, Field, Zea mays = assay: Postemergence herbicidal evaluation, ZEAMX; type: in vivo, L.
How it was run: as §1

MOOVA Monochoria = assay: Preemergence weed control, flooded paddy (Table III); type: in vivo, Monochoria vaginalis; design: scale not given here
Procedure: as §6

[13] = test system: Barnyardgrass, Echinochloa crus-galli; assay: Postemergence herbicidal evaluation, ECHCG; type: in vivo, (L.) Beau
How it was run: as §1

[14] = test system: Lambsquarters, Common, Chenopodium album; assay: Preemergence herbicidal evaluation, CHEAL; type: in vivo, L.; conditions: 0.2500 kg/ha
How it was run: as §2

[15] = test system: Wheat, Winter, cv Riband, Triticum aestivum; assay: Postemergence herbicidal evaluation, TRZAWR; type: in vivo
How it was run: as §1

With `COC(=O)COc1ccc(C)cc1-c1nsc2ccc(-n3c(=O)cc(C(F)(F)F)n(C)c3=O)cc12` [Compound 2, Methyl {{2-{5-[3,6-dihydro-3-methyl-4-(trifluoromethyl) -2,6-dioxo-1(2H)-pyrimidinyl]-1,2-benzisothiazol-3-yl]-p-tolyl}oxy}acetate] the “herbicide rating (0-9)” value ([1]; 0.0630 kg/ha) was 9.0, the “herbicide rating (0-9)” value ([1]; 0.2500 kg/ha) was 9.0 and the “herbicide rating (0-9)” value [2] was 4.0. For the same compound, the “herbicide rating (0-9)” value ([3]; 0.0630 kg/ha) was 9.0, the “herbicide rating (0-9)” value ([3]; 0.2500 kg/ha) was 9.0 and the “herbicide rating (0-9)” value (Galium, Galium aparine) was 9.0. The “herbicide rating (0-9)” value [4] was 9.0, the herbicidal effect rating (CYPSE Flatsedge [5]; 0.0313 kg/ha) was 0.0 and the herbicidal effect rating (CYPSE Flatsedge [5]; 0.0625 kg/ha) was 0.0. It also gave a herbicidal effect rating (CYPSE Flatsedge [5]; 0.1250 kg/ha) of 0.0, a herbicidal effect rating (CYPSE Flatsedge [5]; 0.2500 kg/ha) of 0.0 and a herbicidal effect rating (CYPSE Flatsedge [5]; 0.5000 kg/ha) of 0.0. It also gave a herbicidal effect rating (CYPIR Rice Flatsedge; 0.1250 kg/ha) of 9.0, a herbicidal effect rating (CYPIR Rice Flatsedge; 0.2500 kg/ha) of 9.0 and a herbicidal effect rating (CYPIR Rice Flatsedge; 0.5000 kg/ha) of 9.0. For the same compound, the “herbicide rating (0-9)” value [6] was 9.0, the herbicidal effect rating ([7]; 0.0313 kg/ha) was 0.0 and the herbicidal effect rating ([7]; 0.0625 kg/ha) was 0.0. The herbicidal effect rating ([7]; 0.1250 kg/ha) was 2.0, the herbicidal effect rating ([7]; 0.2500 kg/ha) was 4.0 and the herbicidal effect rating ([7]; 0.5000 kg/ha) was 9.0. The herbicidal effect rating (ORYSAT Rice, Tebonnet; 0.1250 kg/ha) was 3.0, the herbicidal effect rating (ORYSAT Rice, Tebonnet; 0.2500 kg/ha) was 7.0 and the herbicidal effect rating (ORYSAT Rice, Tebonnet; 0.5000 kg/ha) was 8.0. The “herbicide rating (0-9)” value [8] was 9.0, the “herbicide rating (0-9)” value ([9]; 0.0630 kg/ha) was 7.8 and the “herbicide rating (0-9)” value ([9]; 0.2500 kg/ha) was 9.0. The “herbicide rating (0-9)” value ([10]; 0.0630 kg/ha) was 8.8, the herbicidal effect rating (CYPSE Flatsedge [11]; 0.1250 kg/ha) was 0.0 and the herbicidal effect rating (CYPSE Flatsedge [11]; 0.2500 kg/ha) was 0.0. The herbicidal effect rating (CYPSE Flatsedge [11]; 0.5000 kg/ha) was 0.0, the “herbicide rating (0-9)” value (Soybean, Glycine max) was 9.0 and the herbicidal effect rating ([12]; 0.1250 kg/ha) was 0.0. The herbicidal effect rating ([12]; 0.2500 kg/ha) was 2.0, the herbicidal effect rating ([12]; 0.5000 kg/ha) was 4.0 and the “herbicide rating (0-9)” value (Corn, Field, Zea mays; 0.0630 kg/ha) was 8.0. The “herbicide rating (0-9)” value (Corn, Field, Zea mays; 0.2500 kg/ha) was 7.5, the herbicidal effect rating (MOOVA Monochoria; 0.0313 kg/ha) was 7.0 and the herbicidal effect rating (MOOVA Monochoria; 0.0625 kg/ha) was 9.0. It also gave a herbicidal effect rating (MOOVA Monochoria; 0.1250 kg/ha) of 9.0, a herbicidal effect rating (MOOVA Monochoria; 0.2500 kg/ha) of 9.0 and a herbicidal effect rating (MOOVA Monochoria; 0.5000 kg/ha) of 9.0. The “herbicide rating (0-9)” value ([13]; 0.0630 kg/ha) was 9.0, the “herbicide rating (0-9)” value ([13]; 0.2500 kg/ha) was 9.0 and the “herbicide rating (0-9)” value [14] was 9.0. For the same compound, the “herbicide rating (0-9)” value ([15]; 0.0630 kg/ha) was 7.2 and the “herbicide rating (0-9)” value ([15]; 0.2500 kg/ha) was 9.0.
With `Cc1nsc2ccc(-n3c(=O)cc(C(F)(F)F)n(C)c3=O)cc12` [Compound 6, 1-Methyl-3-(3-methyl-1,2-benzisothiazol-5-yl)-6-(trifluoromethyl)-2,4(1H,3H)-pyrimidinedione] the “herbicide rating (0-9)” value ([1]; 0.0630 kg/ha) was 2.0, the “herbicide rating (0-9)” value ([1]; 0.2500 kg/ha) was 9.0 and the “herbicide rating (0-9)” value [2] was 8.0. For the same compound, the “herbicide rating (0-9)” value ([3]; 0.0630 kg/ha) was 7.0, the “herbicide rating (0-9)” value ([3]; 0.2500 kg/ha) was 9.0 and the “herbicide rating (0-9)” value (Galium, Galium aparine) was 9.0. The “herbicide rating (0-9)” value [4] was 9.0, the herbicidal effect rating (CYPSE Flatsedge [5]; 0.0625 kg/ha) was 4.0 and the herbicidal effect rating (CYPSE Flatsedge [5]; 0.1250 kg/ha) was 7.0. For the same compound, the herbicidal effect rating (CYPSE Flatsedge [5]; 0.2500 kg/ha) was 9.0, the herbicidal effect rating (CYPSE Flatsedge [5]; 0.5000 kg/ha) was 9.0 and the herbicidal effect rating (CYPIR Rice Flatsedge; 0.1250 kg/ha) was 9.0. The herbicidal effect rating (CYPIR Rice Flatsedge; 0.2500 kg/ha) was 9.0, the herbicidal effect rating (CYPIR Rice Flatsedge; 0.5000 kg/ha) was 9.0 and the “herbicide rating (0-9)” value [6] was 9.0. It also gave a herbicidal effect rating ([7]; 0.0625 kg/ha) of 4.0, a herbicidal effect rating ([7]; 0.1250 kg/ha) of 7.0 and a herbicidal effect rating ([7]; 0.2500 kg/ha) of 7.0. It also gave a herbicidal effect rating ([7]; 0.5000 kg/ha) of 9.0, a herbicidal effect rating (ORYSAT Rice, Tebonnet; 0.1250 kg/ha) of 9.0 and a herbicidal effect rating (ORYSAT Rice, Tebonnet; 0.2500 kg/ha) of 9.0. For the same compound, the herbicidal effect rating (ORYSAT Rice, Tebonnet; 0.5000 kg/ha) was 9.0, the “herbicide rating (0-9)” value ([9]; 0.0630 kg/ha) was 1.8 and the “herbicide rating (0-9)” value ([9]; 0.2500 kg/ha) was 5.0. For the same compound, the “herbicide rating (0-9)” value ([10]; 0.0630 kg/ha) was 4.8, the “herbicide rating (0-9)” value ([10]; 0.2500 kg/ha) was 7.0 and the herbicidal effect rating (CYPSE Flatsedge [11]; 0.1250 kg/ha) was 7.0. For the same compound, the herbicidal effect rating (CYPSE Flatsedge [11]; 0.2500 kg/ha) was 7.0, the herbicidal effect rating (CYPSE Flatsedge [11]; 0.5000 kg/ha) was 9.0 and the “herbicide rating (0-9)” value (Soybean, Glycine max) was 6.0. For the same compound, the herbicidal effect rating ([12]; 0.1250 kg/ha) was 6.0, the herbicidal effect rating ([12]; 0.2500 kg/ha) was 8.0 and the herbicidal effect rating ([12]; 0.5000 kg/ha) was 9.0. The “herbicide rating (0-9)” value (Corn, Field, Zea mays; 0.0630 kg/ha) was 4.5, the “herbicide rating (0-9)” value (Corn, Field, Zea mays; 0.2500 kg/ha) was 3.5 and the herbicidal effect rating (MOOVA Monochoria; 0.0625 kg/ha) was 9.0. For the same compound, the herbicidal effect rating (MOOVA Monochoria; 0.1250 kg/ha) was 9.0, the herbicidal effect rating (MOOVA Monochoria; 0.2500 kg/ha) was 9.0 and the herbicidal effect rating (MOOVA Monochoria; 0.5000 kg/ha) was 9.0. For the same compound, the “herbicide rating (0-9)” value ([13]; 0.0630 kg/ha) was 1.5, the “herbicide rating (0-9)” value ([13]; 0.2500 kg/ha) was 6.0 and the “herbicide rating (0-9)” value [14] was 9.0. The “herbicide rating (0-9)” value ([15]; 0.0630 kg/ha) was 1.5 and the “herbicide rating (0-9)” value ([15]; 0.2500 kg/ha) was 5.0.
